Results reported in patent US4883801A, “Xanthine derivative pest control agents” (priority 1986, dated 1989).
“Also recorded” adds a separate entry of the source.

What was measured:
[1] = tested on: hornworm nerve cord PDE (cyclic AMP phosphodiesterase); assay: Inhibition of cyclic AMP phosphodiesterase activity in homogenates of tobacco hornworm nerve cord; type: biochemical, Manduca sexta; conditions: for activity of structurally similar compounds tested as described in Example 46: Example 47
Experimental: Nerve cord was dissected from 40-60 mm long M. sexta larvae, cleaned, and homogenized (2 mg/ml) in 6 Mm Tris-maleate, pH 7.4. PDE activity was measured (4 min. incubation at 30° C.) in an assay system (0.1 ml) containing 80 mM Tris-maleate, pH 7.4; 6 mM Mg--SO4; 10^-7 M^3 H-cyclic AMP; and tissue homogenate (0.02 ml). Nerve cord was evaluated in the presence and the absence of the xanthine derivative. For purposes of the evaluation, the rate of formation of ^3 H-5' AMP was measured using the technique described in Filburn, C. […] The values shown in FIG. 1D are the mean (±SEM) of three separate experiments.

[2] = tested on: cockroach brain adenylate cyclase; conditions: in vitro; cited from earlier work
[3] = tested on: cockroach brain phosphodiesterase; conditions: in vitro; cited from earlier work
[4] = tested on: Manduca sexta (tobacco hornworm) larvae; assay: Antifeeding test: tomato leaves sprayed with compound, tobacco hornworm larvae; type: in vivo; conditions: for Vmax (percent inhibition of feeding at the highest dose used): highest dose usually a 3% spray solution; for EC50 (spray concentration required to cause 50% inhibition of feeding): spray on tomato leaves, calculated from dose-response curves, Manduca sexta 6 per leaf
[5] = tested on: adenosine receptor; conditions: Bruns et al., cited from earlier work
[6] = tested on: Tribolium castaneum (flower beetle) adults; assay: Tribolium castaneum adults: acute effect and chronic reproduction test; type: in vivo
[7] = tested on: Culex (mosquito) larvae; assay: Killing of Culex larvae in solution; type: in vivo
[8] = tested on: Tribolium confusum (flower beetle) adults; assay: Tribolium confusum adults: acute effect and chronic reproduction test; type: in vivo

Row | SMILES | Vmax (percent inhibition of feeding at the highest dose used) [4] [%] | EC50 (spray concentration required to cause 50% inhibition of feeding) [4] | other results
1 | Cn1c(=O)c2ncn(C)c2n(C)c1=O [1,3,9-trimethyl-xanthine] | – | – | activity of structurally similar compounds tested as described in Example 46 [1]: only weakly active
2 | CNC(=O)O/N=C/C(C)(C)SC [Aldicarb] | – | – | direct effect on cockroach brain adenylate cyclase (in words) [2]: essentially no direct effects
3 | C=CCC1=C(C)C(OC(=O)C2C(C=C(C)C)C2(C)C)CC1=O (stereo not drawn) [Allethrin] | – | – | direct effect on cockroach brain adenylate cyclase (in words) [2]: essentially no direct effects
4 | Clc1ccc(C(c2ccc(Cl)cc2)C(Cl)(Cl)Cl)cc1 [DDT] | – | – | effect on cockroach brain phosphodiesterase (in words) [3]: activators of phosphodiesterase; direct effect on cockroach brain adenylate cyclase (in words) [2]: essentially no direct effects
5 | ClC1=C(Cl)[C@]2(Cl)[C@@H]3[C@@H]4C[C@@H]([C@H]5O[C@@H]45)[C@@H]3[C@@]1(Cl)C2(Cl)Cl [Dieldrin] | – | – | effect on cockroach brain phosphodiesterase (in words) [3]: activators of phosphodiesterase; direct effect on cockroach brain adenylate cyclase (in words) [2]: essentially no direct effects
6 | Cc1cc(OC(=O)N(C)C)nn1C(=O)N(C)C [Dimetilan] | – | – | direct effect on cockroach brain adenylate cyclase (in words) [2]: essentially no direct effects
7 | CCn1c(=O)c2[nH]cnc2n(CC)c1=O [Example 16, 1,3-diethyl-xanthine] | 98 | 0.33 % (gm/100 ml) | –
8 | CCCn1c(=O)c2[nH]cnc2n(CCC)c1=O [Example 17, 1,3-dipropyl-xanthine] | 95 | 0.035 % (gm/100 ml) | –
9 | C=CCn1c(=O)c2[nH]cnc2n(CC=C)c1=O [Example 18, 1,3-diallyl-xanthine] | 99 | 0.35 % (gm/100 ml) | –
10 | O=c1c2[nH]cnc2n(Cc2ccccc2)c(=O)n1Cc1ccccc1 [Example 19, 1,3-dibenzyl-xanthine] | 70 | 0.45 % (gm/100 ml) | –
11 | CC(C)Cn1c(=O)n(C)c(=O)c2[nH]cnc21 [Example 20, 1-methyl,3-isobutyl-xanthine] | 95 | 0.3 % (gm/100 ml) | potency in PDE inhibition relative to theophylline [1]: about 10 fold; potency in blocking adenosine receptors compared with theophylline (in words) [5]: roughly equally potent; EC50, inhibition of reproduction ([6]; chronic tests): 0.2%; effect on adults ([6]; doses up to 3%): unaffected; EC50, killing of larvae [7]: 0.007%; EC50, inhibition of reproduction ([8]; chronic tests): 0.2%; effect on adults ([8]; doses up to 3%): unaffected; antifeeding effects in the presence of diltiazem and procaine ([4]; Example 13): neither reversing the observed antifeeding effects; pestistatic and pesticidal effects in the presence of D600, verapamil, and nimodipine ([4]; Example 14): appeared unaffected; potency in disruption of feeding relative to theophylline ([4]; in vivo): about 10 fold
12 | CC(C)CCn1c(=O)c2[nH]cnc2n(CC(C)C)c1=O [Example 21, 1-isoamyl,3-isobutyl-xanthine] | > 52 | 0.2 % (gm/100 ml) | –
13 | CCn1c(=O)n(CCc2ccccc2)c(=O)c2[nH]cnc21 [Example 22, 1-phenethyl,3-ethyl-xanthine] | 96 | 0.6 % (gm/100 ml) | –
14 | Cn1c(=O)c2c(ncn2CCCl)n(C)c1=O [Example 24, 1,3-dimethyl,7-(2-chlorethyl)-xanthine] | 95 | 0.3 % (gm/100 ml) | –
15 | CC(O)Cn1cnc2c1c(=O)n(C)c(=O)n2C (stereo not drawn) [Example 25, 1,3-dimethyl,7-(beta-hydroxypropyl-xanthine)] | 95 | 1.5 % (gm/100 ml) | –
16 | COc1nc2c(c(=O)n(C)c(=O)n2C)n1C [Example 26, 1,3,7-trimethyl,8-methoxy-xanthine] | 86 | 0.5 % (gm/100 ml) | –
17 | Cn1cnc2c1c(=O)[nH]c(=O)n2C [Example 27, 3,7-dimethyl-xanthine (theobromine), reference compound] | 87 | 1.0 % (gm/100 ml) | –
18 | CCCn1c(=O)c2c(ncn2C)n(CCC)c1=O [Example 28, 1,3-dipropyl,7-methyl-xanthine] | 84 | 0.48 % (gm/100 ml) | –
19 | CCCn1c(=O)c2c(ncn2CCC)n(CCC)c1=O [Example 29, 1,3,7-tripropyl-xanthine] | 95 | 0.19 % (gm/100 ml) | –
20 | CCCn1c(=O)c2c(ncn2Cc2ccccc2)n(CCC)c1=O [Example 30, 1,3-dipropyl,7-benzyl-xanthine] | 96 | 0.08 % (gm/100 ml) | –

Row | SMILES | Vmax (percent inhibition of feeding at the highest dose used) [4] [%] | EC50 (spray concentration required to cause 50% inhibition of feeding) [4] | other results
21 | CCCCn1c(=O)c2[nH]cnc2n(CCCC)c1=O [Example 31, 1,3-dibutyl-xanthine] | 90 | 0.044 % (gm/100 ml) | –
22 | O=c1[nH]c(=O)c2[nH]cnc2[nH]1 [Example 32, xanthine] | 0 | > 3 % (gm/100 ml) | –
23 | Cn1c(=O)[nH]c2nc[nH]c2c1=O [Example 33, 1-methyl-xanthine] | 21 | > 3 % (gm/100 ml) | –
24 | Cn1c(=O)[nH]c(=O)c2[nH]cnc21 [Example 34, 3-methyl-xanthine] | 8 | > 3 % (gm/100 ml) | –
25 | Cn1cnc2[nH]c(=O)[nH]c(=O)c21 [Example 35, 7-methyl-xanthine] | 29 | > 3 % (gm/100 ml) | –
26 | Cc1nc2[nH]c(=O)[nH]c(=O)c2[nH]1 [Example 36, 8-methyl-xanthine] | 35 | > 3 % (gm/100 ml) | –
27 | Cn1c(=O)[nH]c2ncn(C)c2c1=O [Example 38, 1,7-dimethyl-xanthine] | 30 | > 3 % (gm/100 ml) | activity of structurally similar compounds tested as described in Example 46 [1]: inactive
28 | Cn1c(=O)[nH]c2[nH]c(=O)n(C)c2c1=O [Example 39, 1,7-dimethyl-uric acid] | 30 | > 3 % (gm/100 ml) | –
29 | Cn1c(=O)c2c([nH]c(=O)n2C)n(C)c1=O [Example 40, 1,3,7-trimethyl-uric acid] | 40 | > 3 % (gm/100 ml) | –
30 | CC(=O)n1cnc2c1c(=O)n(C)c(=O)n2C [Example 41, 1,3-dimethyl-7-acetyl-xanthine] | 18 | > 3 % (gm/100 ml) | –
31 | Cn1c(=O)c2[nH]c(-c3ccccc3)nc2n(C)c1=O [Example 42, 1,3-dimethyl-8-phenyl-xanthine] | 38 | > 3 % (gm/100 ml) | PDE inhibition (in words) ([1]; FIG. 1D): very weak PDE inhibitor; Ki ([5]; Daly 1982): 0.12 to 1 µM; antifeeding effect (in words) ([4]; FIG. 1C, listed as 8-phenyltheophylline): relatively weak effects; also recorded: little antifeeding effect
32 | CCCn1c(=O)c2[nH]c(-c3ccccc3)nc2n(CCC)c1=O [Example 43, 1,3-dipropyl-8-phenyl-xanthine] | 0 | > 3 % (gm/100 ml) | –
33 | Cn1c(=O)c2c(nc(Cl)n2C)n(C)c1=O [Example 44, 1,3,7-trimethyl-8-chloro-xanthine] | 40 | > 3 % (gm/100 ml) | –
34 | Cn1c(=O)c2ncn(C)c2n(C)c1=O [Example 45, 1,3,9-trimethyl-xanthine] | 50 | > 3 % (gm/100 ml) | pesticidal and pestistatic activity class (active / inactive / weakly active) ([4]; Table 1 grouping): weakly active
35 | Cc1ccc2nc3sc(=O)sc3nc2c1 [Oxythioquinox] | – | – | effect on cockroach brain phosphodiesterase (in words) [3]: most potent inhibitor; inhibition of cockroach brain phosphodiesterase [3]: over 80%; direct effect on cockroach brain adenylate cyclase (in words) [2]: essentially no direct effects
36 | C=C(C)[C@H]1Cc2c(ccc3c2O[C@@H]2COc4cc(OC)c(OC)cc4[C@@H]2C3=O)O1 [Rotenone] | – | – | direct effect on cockroach brain adenylate cyclase (in words) [2]: essentially no direct effects
37 | CCOP(=O)(OCC)OP(=O)(OCC)OCC [TEPP] | – | – | direct effect on cockroach brain adenylate cyclase (in words) [2]: essentially no direct effects
38 | COP(=O)(OC)Oc1ccc([N+](=O)[O-])cc1 [methylparaoxon] | – | – | direct effect on cockroach brain adenylate cyclase (in words) [2]: essentially no direct effects
39 | COc1ccc(Cc2nccc3cc(OC)c(OC)cc23)cc1OC [papavarine, reference compound] | – | – | Ki ([1]; read-out: Ki, insect PDE): 40 µM; EC50, ability of Manducca to feed ([4]; in vivo): 0.1 % spray
